For 28 compounds, EC50 results are on record in US20240217990A1 (Gilead Sciences, Inc., priority 2021, published 2024).

One experiment has as its target T1, TLR8 (Homo sapiens, UniProt Q9NR97).
T1 construct: Human peripheral blood mononuclear cells (PBMCs) consist of lymphocytes, monocytes and dendritic cells that express TLR7, TLR8 and TLR9; endogenous in cells; host or cells: cryopreserved human PBMCs from healthy donors
T1 sequence (Q9NR97 27-1041): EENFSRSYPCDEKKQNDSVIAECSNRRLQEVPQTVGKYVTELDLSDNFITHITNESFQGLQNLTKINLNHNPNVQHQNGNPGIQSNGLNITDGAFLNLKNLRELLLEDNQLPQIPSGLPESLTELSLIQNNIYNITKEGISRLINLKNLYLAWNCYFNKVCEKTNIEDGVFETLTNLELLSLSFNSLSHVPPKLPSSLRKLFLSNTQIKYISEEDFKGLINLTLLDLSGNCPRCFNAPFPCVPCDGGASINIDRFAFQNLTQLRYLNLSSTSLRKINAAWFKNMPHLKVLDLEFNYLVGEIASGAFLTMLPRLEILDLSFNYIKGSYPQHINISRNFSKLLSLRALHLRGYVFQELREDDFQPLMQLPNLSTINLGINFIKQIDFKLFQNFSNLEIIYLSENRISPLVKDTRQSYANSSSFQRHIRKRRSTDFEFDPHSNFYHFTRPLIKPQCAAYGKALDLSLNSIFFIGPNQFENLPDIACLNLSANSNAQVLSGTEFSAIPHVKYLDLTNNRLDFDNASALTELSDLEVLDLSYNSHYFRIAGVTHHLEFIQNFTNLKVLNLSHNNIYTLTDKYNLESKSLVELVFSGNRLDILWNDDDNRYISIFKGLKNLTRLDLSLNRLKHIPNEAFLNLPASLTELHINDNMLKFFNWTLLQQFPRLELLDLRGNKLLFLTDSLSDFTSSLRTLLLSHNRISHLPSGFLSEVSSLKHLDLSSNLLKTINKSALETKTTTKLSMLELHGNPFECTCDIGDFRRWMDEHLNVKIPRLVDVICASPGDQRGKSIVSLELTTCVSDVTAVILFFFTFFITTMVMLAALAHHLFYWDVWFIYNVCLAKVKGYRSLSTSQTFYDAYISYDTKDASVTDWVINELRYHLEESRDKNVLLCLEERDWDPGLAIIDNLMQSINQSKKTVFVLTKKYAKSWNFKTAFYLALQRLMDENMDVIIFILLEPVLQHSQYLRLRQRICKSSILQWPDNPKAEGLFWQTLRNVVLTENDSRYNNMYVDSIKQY
The experiment can be described thus: TLR8 human PBMC cell-based assay (antagonist, Compound A stimulated cytokine release). To be noted: human PBMCs; TLR8 agonist Compound A 800 nM, 6 hours; cytokines (TNFa and IL 12p40) in supernatant; read-out: TLR-8 EC50. In a few lines:
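Cryopreserved donor PBMCs (100,000/well, RPMI + 10% FBS) were preincubated 1 h with antagonist (10-point dose response, quadruplicate), then stimulated with Compound A (800 nM final) for 6 h at 37 °C. TNFa and IL-12p40 in supernatants were measured by electrochemiluminescence; sigmoidal fits gave EC50.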

In another experiment the target is T2, TLR7 (Homo sapiens, UniProt Q9NYK1).
T2 construct: Human peripheral blood mononuclear cells (PBMCs) consist of lymphocytes, monocytes and dendritic cells that express TLR7, TLR8 and TLR9; endogenous in cells; host or cells: cryopreserved human PBMCs from healthy donors
T2 sequence (Q9NYK1 27-1049): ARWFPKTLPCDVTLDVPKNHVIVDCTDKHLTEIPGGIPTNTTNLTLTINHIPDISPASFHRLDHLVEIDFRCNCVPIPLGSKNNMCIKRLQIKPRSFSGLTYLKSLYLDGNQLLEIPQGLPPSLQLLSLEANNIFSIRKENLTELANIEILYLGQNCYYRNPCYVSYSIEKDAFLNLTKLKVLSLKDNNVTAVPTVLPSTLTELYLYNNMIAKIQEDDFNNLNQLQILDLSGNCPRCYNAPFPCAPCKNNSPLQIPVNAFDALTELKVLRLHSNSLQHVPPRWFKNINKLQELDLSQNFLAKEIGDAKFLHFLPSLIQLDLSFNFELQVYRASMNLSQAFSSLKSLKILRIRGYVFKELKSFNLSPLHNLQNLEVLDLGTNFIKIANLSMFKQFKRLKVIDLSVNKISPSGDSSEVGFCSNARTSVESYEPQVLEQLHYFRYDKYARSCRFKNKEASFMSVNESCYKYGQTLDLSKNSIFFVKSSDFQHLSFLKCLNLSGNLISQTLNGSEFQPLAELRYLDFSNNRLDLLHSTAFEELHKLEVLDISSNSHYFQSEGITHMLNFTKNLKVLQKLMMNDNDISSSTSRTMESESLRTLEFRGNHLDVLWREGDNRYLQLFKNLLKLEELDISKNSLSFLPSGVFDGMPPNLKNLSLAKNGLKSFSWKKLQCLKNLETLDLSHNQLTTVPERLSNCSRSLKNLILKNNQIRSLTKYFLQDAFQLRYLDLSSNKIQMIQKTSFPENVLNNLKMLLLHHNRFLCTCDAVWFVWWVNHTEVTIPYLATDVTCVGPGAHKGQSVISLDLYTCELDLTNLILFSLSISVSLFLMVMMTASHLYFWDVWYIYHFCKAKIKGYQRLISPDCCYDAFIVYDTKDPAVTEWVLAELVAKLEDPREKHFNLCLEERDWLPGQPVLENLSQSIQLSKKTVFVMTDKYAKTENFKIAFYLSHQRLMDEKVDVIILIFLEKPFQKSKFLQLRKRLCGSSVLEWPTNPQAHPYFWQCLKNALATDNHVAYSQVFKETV
The experiment can be described thus: TLR7 human PBMC cell-based assay (antagonist, GS-986 stimulated cytokine release). Conditions: human PBMCs; TLR7 agonist GS-986 400 nM, 6 hours; cytokines (IL-6 and IFNα) in supernatant; read-out: TLR-7 EC50. In a few lines: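 EC50 derived by sigmoidal fitting of IL-6 and IFNα levels, quantified by electrochemiluminescence in supernatants of human PBMCs given 400 nM GS-986 for 6 h. Cells (100,000/well in RPMI-1640, 10% FBS) had received test antagonist 1 h beforehand, 10 doses in quadruplicate, at 37 °C.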

For orientation: EC50 means the midpoint of the concentration-response curve. Consider `Cc1cc(-c2[nH]c3cc(C(=O)N4CCC(N)CC4)sc3c2C(C)C)cc(C)n1` [Example 2], for which the EC50 at TLR8 turned out to be 31.7 nM; on TLR7, 37.5 nM.
For `Cc1cc(-c2[nH]c3cc(C4CCC5(C4)CN(CC(N)=O)C5)sc3c2C(C)C)cn2ncnc12` (single isomer, unassigned) [Example 310, 2-(6-(6-Isopropyl-5-(8-methyl-[1,2,4]triazolo[1,5-a]pyridin-6-yl)-4H-thieno[3,2-b]pyrrol-2-yl)-2-azaspiro[3.4]octan-2-yl)acetamide] the same measures were 1.36 nM and 0.18 nM.
Take `Cc1cc(-c2[nH]c3cc(C(=O)N4C[C@@H](C)NC[C@@H]4C)sc3c2C(C)C)cn2ncnc12` [Example 123]: the EC50 came to 0.5 nM on TLR8 and 1.3 nM at TLR7.
The corresponding values for `Cc1cc(-c2[nH]c3cc(C(=O)N4CCC[C@H]4CN)sc3c2C(C)C)cn2ncnc12` [Example 145] are 46.3 nM and 3.8 nM.
For `Cc1cc(-c2[nH]c3cc(C4CCN(C(=O)CN(C)C)CC4)sc3c2C(C)C)cn2ncnc12` [Example 181] the same measures were 7.7 nM and 1 nM.
The corresponding values for `Cc1cc(-c2[nH]c3cc(C(=O)N4C5CCC4CNC5)sc3c2C(C)C)cc(C)n1` [Example 17] are 32 nM and 49.9 nM.
With `Cc1cc(-c2[nH]c3cc(C(=O)N4CC5CCC(C4)N5)sc3c2C(C)C)cc(C)n1` [Example 16], the EC50 amounted to 15.1 nM at TLR8 and 43.5 nM on TLR7.
The corresponding values for `Cc1cc(-c2[nH]c3cc(C4CCN(CCO)CC4)sc3c2C(C)C)cn2ncnc12` [Example 187, 2-(4-(6-isopropyl-5-(8-methyl-[1,2,4]triazolo[1,5-a]pyridin-6-yl)-4H-thieno[3,2-b]pyrrol-2-yl)piperidin-1-yl)ethan-1-ol] are 0.6 nM and 1.6 nM.
For `Cc1cc(-c2[nH]c3cc(C(=O)N4CCN[C@H](c5ccccc5)C4)sc3c2C(C)C)cn2ncnc12` [Example 129], the EC50 amounted to 2.2 nM at TLR8 and 18.1 nM on TLR7.
The corresponding values for `Cc1cc(-c2[nH]c3cc(C4CCNC5(CCC5)C4)sc3c2C(C)C)cn2ncnc12` (centres unmarked) [Example 296] are 8.2 nM and 3.76 nM.
For `Cc1cc(-c2[nH]c3cc(C(=O)N(C)[C@H]4CNC[C@H]4F)sc3c2C(C)C)cn2ncnc12` [Example 61] the same measures were 17.4 nM and 7.9 nM.
For `CCc1c(-c2cc(C)c3ncnn3c2)[nH]c2cc(C(=O)N(C)C3CCNCC3)sc12` [Example 63] the same measures were 15.6 nM and 0.7 nM.
Regarding `Cc1cc(-c2[nH]c3cc(C4CCC(N5CC6(COC6)C5)CC4)sc3c2C(C)C)cn2ncnc12` (centres unmarked) [Example 260], the results for the concentration for a half-maximal effect (EC50) on TLR8 and on TLR7 were 2 nM and 0.3 nM, respectively.
The corresponding values for `Cc1cc(-c2[nH]c3cc(C(=O)N4C[C@H]5C[C@@H]4CN5)sc3c2C(C)C)cc(C)n1` [Example 21] are 66.2 nM and 70.6 nM.
The corresponding values for `Cc1cc(-c2[nH]c3cc(-c4nc5ccccc5[nH]4)sc3c2C(C)C)cn2ncnc12` [Example 235, 2-(1H-benzo[d]imidazol-2-yl)-6-isopropyl-5-(8-methyl-[1,2,4]triazolo[1,5-a]pyridin-6-yl)-4H-thieno[3,2-b]pyrrole] are 114 nM and 110 nM.
As for `Cc1cc(-c2[nH]c3cc(C(=O)N4CCC5CNCCC54)sc3c2C(C)C)cn2ncnc12` (centres unmarked) [Example 88], the EC50 is 4.6 nM on TLR8 and 0.5 nM on TLR7.
The corresponding values for `Cc1cc(-c2[nH]c3cc(C4=NC5(CCNCC5)CO4)sc3c2C(C)C)cn2ncnc12` [Example 50, 2-(6-isopropyl-5-(8-methyl-[1,2,4]triazolo[1,5-a]pyridin-6-yl)-4H-thieno[3,2-b]pyrrol-2-yl)-3-oxa-1,8-diazaspiro[4.5]dec-1-ene] are 4.6 nM and 0.2 nM.
For the compound `Cc1cc(-c2[nH]c3cc(-c4ccc5nc(C6[C@H]7CC[C@H](C7)N6CC(N)=O)[nH]c5c4)sc3c2C(C)C)cn2ncnc12` (some centres unmarked) [Example 170], the EC50 is 10.5 nM on TLR8 and 1.2 nM at TLR7.
The corresponding values for `Cc1cc(-c2[nH]c3cc(C(=O)N4CCC[C@@H]4CN(C)C)sc3c2C(C)C)cn2ncnc12` [Example 104] are 10.6 nM and 7.8 nM.
The corresponding values for `Cc1cc(-c2[nH]c3cc(C(=O)N4C[C@@H](N)CC[C@@H]4C)sc3c2C(C)C)cn2ncnc12` [Example 101] are 78.8 nM and 2.2 nM.
For `Cc1cc(-c2[nH]c3cc(C(=O)N(C)C4CCN(CC(N)=O)CC4)sc3c2C(C)C)cn2ncnc12` [Example 178] the same measures were 17.4 nM and 1.3 nM.
On to `Cc1cc(-c2[nH]c3cc(CN4CCN(C)CC4)sc3c2C(C)C)cn2ncnc12` [Example 265, 6-isopropyl-5-(8-methyl-[1,2,4]triazolo[1,5-a]pyridin-6-yl)-2-((4-methylpiperazin-1-yl)methyl)-4H-thieno[3,2-b]pyrrole], for which the EC50 at TLR8 turned out to be 8.2 nM; on TLR7, 1.7 nM.
For `Cc1cc(-c2[nH]c3cc(C4CC5CCC4CN5)sc3c2C(C)C)cn2ncnc12` (centres unmarked) [Example 282] the same measures were 11.7 nM and 1.32 nM.
For `Cc1cc(-c2[nH]c3cc(C4CC5CCCC(C4)N5)sc3c2C(C)C)cn2ncnc12` (centres unmarked) [Example 297] the same measures were 19.5 nM and 2.74 nM.
For `Cc1cc(-c2[nH]c3cc(C(=O)N(C)[C@@H]4CNC[C@H](C(F)(F)F)C4)sc3c2C(C)C)cn2ncnc12` [Example 276] the same measures were 16.3 nM and 2.7 nM.
With `Cc1cc(-c2[nH]c3cc(C4CCC(N5CCC(OC(F)F)C5)CC4)sc3c2C(C)C)cn2ncnc12` (centres unmarked) [Example 258], the figures for the EC50 at TLR8 and at TLR7 were 11.9 nM and 2.3 nM, respectively.
For `Cc1cc(-c2[nH]c3cc(C(=O)N4CCN[C@H](C(F)(F)F)C4)sc3c2C(C)C)cn2ncnc12` [Example 152] the same measures were 58.9 nM and 90.9 nM.
For `Cc1cc(-c2[nH]c3cc(C(=O)N[C@@H]4CCNC4)sc3c2C(C)C)cc(C)n1` [Example 5] the same measures were 654 nM and > 1000 nM.
